In patent US11224609B2, “Mithramycin derivatives having increased selectivity and anti-cancer activity” (University of Kentucky Research Foundation, priority 2017, dated 2022):
Read-outs that look alike come from different tables or passages of the source.

How the values were obtained:
[1] = test system: PC-3 (prostate cancer, no ETS translocation) cell line; assay: 72 h growth inhibition (GI50) assay in PC-3; conditions: read-out: PC-3 Prostate cancer No ETS Translocation GI50
[2] = test system: TC-32 (Ewing sarcoma, EWS-FLI1 Type 1) cell line; conditions: for TC-32 Ewing sarcoma EWS-FLI1 Type 1 GI50: 72 h growth inhibition, TC-32 cells; for GI50 ratio PC-3:TC-32: selectivity, GI50 in PC-3 over GI50 in TC-32
[3] = 72 h growth inhibition, PC-3 cells

Row | Structure (SMILES) | GI50 [1, 3] | TC-32 Ewing sarcoma EWS-FLI1 Type 1 GI50 [2] | GI50 ratio PC-3:TC-32 [2] | GI50 ([1]; Homo sapiens, PC-3, 72 h) | fold decrease in activity in the TC-32 cell line ([2]; compared with the tryptophan parent)
1 | COC(=O)C(Cc1c[nH]c2ccc(OC)cc12)NC(=O)C(OC)C1Cc2cc3cc(OC4CC(OC5CC(O)C(O)C(C)O5)C(O)C(C)O4)c(C)c(O)c3c(O)c2C(=O)C1OC1CC(OC2CC(OC3CC(C)(O)C(O)C(C)O3)C(O)C(C)O2)C(O)C(C)O1 (centres unmarked) [Analogue 49] | 0.617 µM | 0.675 µM | 0.9 | – | –
2 | COC(=O)C(Cc1c[nH]c2ccc([N+](=O)[O-])cc12)NC(=O)C(OC)C1Cc2cc3cc(OC4CC(OC5CC(O)C(O)C(C)O5)C(O)C(C)O4)c(C)c(O)c3c(O)c2C(=O)C1OC1CC(OC2CC(OC3CC(C)(O)C(O)C(C)O3)C(O)C(C)O2)C(O)C(C)O1 (centres unmarked) [Analogue 50] | 0.646 µM | 0.353 µM | 1.8 | – | –
3 | COC(=O)C(Cc1ccc2ccccc2c1)NC(=O)C(OC)C1Cc2cc3cc(OC4CC(OC5CC(O)C(O)C(C)O5)C(O)C(C)O4)c(C)c(O)c3c(O)c2C(=O)C1OC1CC(OC2CC(OC3CC(C)(O)C(O)C(C)O3)C(O)C(C)O2)C(O)C(C)O1 (centres unmarked) [Analogue 58] | 1.6 µM | 0.541 µM | 3.0 | – | –
4 | COC(=O)C(Cc1cn(C)c2ccccc12)NC(=O)C(Cc1cn(C)c2ccccc12)NC(=O)C(OC)C1Cc2cc3cc(OC4CC(OC5CC(O)C(O)C(C)O5)C(O)C(C)O4)c(C)c(O)c3c(O)c2C(=O)C1OC1CC(OC2CC(OC3CC(C)(O)C(O)C(C)O3)C(O)C(C)O2)C(O)C(C)O1 (centres unmarked) [Analogue 62] | > 10 µM | 7.834 µM | – | – | –
5 | COC(=O)C(Cc1c[nH]c2cc(-n3cc(-c4ccccc4)nn3)ccc12)NC(=O)C(OC)C1Cc2cc3cc(OC4CC(OC5CC(O)C(O)C(C)O5)C(O)C(C)O4)c(C)c(O)c3c(O)c2C(=O)C1OC1CC(OC2CC(OC3CC(C)(O)C(O)C(C)O3)C(O)C(C)O2)C(O)C(C)O1 (centres unmarked) [Analogue 54] | 5.88 µM | 1.03 µM | 5.7 | – | –
6 | CO[C@H](C(=O)O)[C@@H]1Cc2cc3cc(OC4CC(OC5CC(O)[C@H](O)C(C)O5)[C@H](O)C(C)O4)c(C)c(O)c3c(O)c2C(=O)[C@H]1OC1CC(OC2CC(OC3CC(C)(O)[C@H](O)C(C)O3)[C@@H](O)C(C)O2)[C@H](O)C(C)O1 (some centres unmarked) [MTMSA (2), Mithramycin SA, reference compound] | – | >10 µM | – | > 10 µM | –
7 | COC(=O)C(Cc1c[nH]c2c(-c3ccccc3)cccc12)NC(=O)C(OC)C1Cc2cc3cc(OC4CC(OC5CC(O)C(O)C(C)O5)C(O)C(C)O4)c(C)c(O)c3c(O)c2C(=O)C1OC1CC(OC2CC(OC3CC(C)(O)C(O)C(C)O3)C(O)C(C)O2)C(O)C(C)O1 (centres unmarked) [Analogue 52] | > 10 µM | 2.402 µM | – | – | –
8 | COC(=O)C(Cc1c[nH]c2cc3ccccc3cc12)NC(=O)C(OC)C1Cc2cc3cc(OC4CC(OC5CC(O)C(O)C(C)O5)C(O)C(C)O4)c(C)c(O)c3c(O)c2C(=O)C1OC1CC(OC2CC(OC3CC(C)(O)C(O)C(C)O3)C(O)C(C)O2)C(O)C(C)O1 (centres unmarked) [Analogue 57] | > 10 µM | 3.505 µM | – | – | ~34 fold
9 | COC(=O)C(Cc1cn(Cc2ccccc2)c2ccccc12)NC(=O)C(OC)C1Cc2cc3cc(OC4CC(OC5CC(O)C(O)C(C)O5)C(O)C(C)O4)c(C)c(O)c3c(O)c2C(=O)C1OC1CC(OC2CC(OC3CC(C)(O)C(O)C(C)O3)C(O)C(C)O2)C(O)C(C)O1 (centres unmarked) [Analogue 46] | > 10 µM | 2.297 µM | – | – | –
10 | C=CCc1cccc2c(CC(NC(=O)C(OC)C3Cc4cc5cc(OC6CC(OC7CC(O)C(O)C(C)O7)C(O)C(C)O6)c(C)c(O)c5c(O)c4C(=O)C3OC3CC(OC4CC(OC5CC(C)(O)C(O)C(C)O5)C(O)C(C)O4)C(O)C(C)O3)C(=O)OC)c[nH]c12 (centres unmarked) [Analogue 53] | 2.99 µM | 0.794 µM | 3.8 | – | –
11 | C=CCn1cc(CC(NC(=O)C(OC)C2Cc3cc4cc(OC5CC(OC6CC(O)C(O)C(C)O6)C(O)C(C)O5)c(C)c(O)c4c(O)c3C(=O)C2OC2CC(OC3CC(OC4CC(C)(O)C(O)C(C)O4)C(O)C(C)O3)C(O)C(C)O2)C(=O)OC)c2ccccc21 (centres unmarked) [Analogue 47] | 3.14 µM | 2.715 µM | 1.2 | – | –
12 | COC(=O)C(Cc1c[nH]c2cc(C(F)(F)F)ccc12)NC(=O)C(OC)C1Cc2cc3cc(OC4CC(OC5CC(O)C(O)C(C)O5)C(O)C(C)O4)c(C)c(O)c3c(O)c2C(=O)C1OC1CC(OC2CC(OC3CC(C)(O)C(O)C(C)O3)C(O)C(C)O2)C(O)C(C)O1 (centres unmarked) [Analogue 55] | 2.4 µM | 2.339 µM | 1.0 | – | –
